biological target: USP30 (Homo sapiens (Human), UniProt Q70CQ3); assay: USP30 Biochemical IC50 Assay; details: fluorescence polarisation, TAMRA labelled peptide linked to ubiquitin; 30 min pre-incubation, read after 2 h at room temperature; read-out: IC50 range
Description: USP30 Biochemical IC50 Assay
Dilution plates were prepared at 21 times the final concentration (2100 μM for a final concentration of 100 μM) in 50% DMSO in a 96-well polypropylene V-bottom plate (Greiner #651201). A typical 8-point dilution series would be 100, 30, 10, 3, 1, 0.3, 0.1, […]. Reactions were performed in duplicate in black 384 well plates (small volume, Greiner 784076) in a final reaction volume of 21 μl. Either 1 μl of 50% DMSO or diluted compound was added to the plate. USP30 was diluted in reaction buffer (40 mM Tris, pH 7.5, 0.005% Tween 20, 0.5 mg/ml BSA, 5 mM beta-mercaptoethanol) to the equivalent of 0.05 μl/well and 10 μl of diluted USP30 was added to the compound. Enzyme and compound were incubated for 30 min at room temp. Reactions were initiated by the addition of 50 nM of TAMRA labelled peptide linked to ubiquitin via an iso-peptide bond as fluorescence polarisation substrate. Reactions were read immediately after addition of substrate and following a 2 h incubation at room temperature. Readings were performed on a Pherastar Plus (BMG Labtech). λ Excitation 540 nm; λ Emission 590 nm.

Sequence of USP30 (Q70CQ3 57-517): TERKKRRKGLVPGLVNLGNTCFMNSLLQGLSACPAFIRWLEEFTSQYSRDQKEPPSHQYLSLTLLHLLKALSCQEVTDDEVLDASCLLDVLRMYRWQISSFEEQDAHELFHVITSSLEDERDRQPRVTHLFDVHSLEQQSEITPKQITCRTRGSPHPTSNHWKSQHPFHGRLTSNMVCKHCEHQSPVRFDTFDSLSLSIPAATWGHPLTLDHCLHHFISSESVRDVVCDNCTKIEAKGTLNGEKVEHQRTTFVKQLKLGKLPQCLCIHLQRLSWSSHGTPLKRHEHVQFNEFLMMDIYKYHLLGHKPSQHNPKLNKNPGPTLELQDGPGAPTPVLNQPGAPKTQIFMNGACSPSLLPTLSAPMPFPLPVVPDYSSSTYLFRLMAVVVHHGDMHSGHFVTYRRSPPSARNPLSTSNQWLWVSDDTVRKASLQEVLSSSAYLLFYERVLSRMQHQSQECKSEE

IC50 [nM]	Structure (SMILES)
1000 to 10000	N#CN1CCCC(F)(c2nc3ccc(-c4ccn[nH]4)nc3[nH]2)C1 (racemic) [Example 17, 3-(5-(1H-pyrazol-5-yl)-3H-imidazo[4,5-b]pyridin-2-yl)-3-fluoropiperidine-1-carbonitrile]
10 to 100	N#Cc1cccc(-c2ccc3nc(C4(F)CCCN(C#N)C4)[nH]c3n2)c1 (stereo in doubt) [Example 16, (S)-3-(5-(3-cyanophenyl)-3H-imidazo[4,5-b]pyridin-2-yl)-3-fluoropiperidine-1-carbonitrile]
100 to 1000	N#Cc1cccc(-c2cnc3oc([C@@]4(F)CCCN(C#N)C4)nc3c2)c1 (stereo in doubt) [Example 28, 3-(6-(3-cyanophenyl)oxazolo[5,4-b]pyridin-2-yl)-3-fluoropiperidine-1-carbonitrile]
1000 to 10000	N#CN1CCOC(c2nc(-c3cccc(-c4ccccc4)c3)n[nH]2)C1 (centres unmarked) [Example 6, 2-(3-([1,1′-Biphenyl]-3-yl)-H-1,2,4-triazol-5-yl)morpholine-4-carbonitrile]
10 to 100	N#CN1CCC[C@](F)(c2nnc(-c3cccc(-c4ccccc4)c3)o2)C1 [Example 9, (R)-3-(5-([1,1′-biphenyl]-3-yl)-1,3,4-oxadiazol-2-yl)-3-fluoropiperidine-1-carbonitrile]
100 to 1000	N#CN1CCCC(F)(c2nnc(-c3ccc(-c4ccccc4)cc3)o2)C1 (centres unmarked) [Example 10, 3-(5-([1,1′-biphenyl]-4-yl)-1,3,4-oxadiazol-2-yl)-3-fluoropiperidine-1-carbonitrile]
100 to 1000	N#Cc1cc(-c2cc(-c3nnc([C@@]4(F)CCCN(C#N)C4)o3)ccn2)ccn1 [Example 11, (R)-4-(5-(1-cyano-3-fluoropiperidin-3-yl)-1,3,4-oxadiazol-2-yl)-[2,4′-bipyridine]-2′-carbonitrile]
1000 to 10000	N#Cc1cc(-c2nnc([C@@]3(F)CCCN(C#N)C3)o2)ccn1 [Example 12, (R)-4-(5-(1-cyano-3-fluoropiperidin-3-yl)-1,3,4-oxadiazol-2-yl)picolinonitrile]
1000 to 10000	N#Cc1cc(-c2ccnc(-c3nnc([C@@]4(F)CCCN(C#N)C4)o3)c2)ccn1 [Example 13, (R)-2′-(5-(1-cyano-3-fluoropiperidin-3-yl)-1,3,4-oxadiazol-2-yl)-[4,4′-bipyridine]-2-carbonitrile]
1000 to 10000	N#CN1CCCC(F)(c2nc3ccc(-c4ccn[nH]4)cc3[nH]2)C1 (centres unmarked) [Example 14, 3-(6-(H-pyrazol-5-yl)-1H-benzo[d]imidazol-2-yl)-3-fluoropiperidine-1-carbonitrile]
100 to 1000	N#CN1CCC[C@](F)(c2nc3ccc(-c4ccccc4)nc3[nH]2)C1 [Example 15, (R)-3-fluoro-3-(5-phenyl-3H-imidazo[4,5-b]pyridin-2-yl)piperidine-1-carbonitrile]
100 to 1000	N#Cc1cc(-c2cnc3nc([C@@]4(F)CCCN(C#N)C4)[nH]c3c2)ccn1 [Example 18, (R)-4-(2-(1-cyano-3-fluoropiperidin-3-yl)-3H-imidazo[4,5-b]pyridin-6-yl)picolinonitrile]
100 to 1000	N#Cc1cc(-c2ccc3nc([C@@]4(F)CCCN(C#N)C4)[nH]c3n2)ccn1 [Example 19, (R)-4-(2-(1-cyano-3-fluoropiperidin-3-yl)-1H-imidazo[4,5-b]pyridin-5-yl)picolinonitrile]
1000 to 10000	N#Cc1cccc(-c2ccc3nc([C@@]4(F)CCCN(C#N)C4)[nH]c3n2)n1 [Example 21, (R)-6-(2-(1-cyano-3-fluoropiperidin-3-yl)-3H-imidazo[4,5-b]pyridin-5-yl)picolinonitrile]
10 to 100	N#Cc1cccc(-c2ccc3oc([C@@]4(F)CCCN(C#N)C4)nc3c2)c1 [Example 22, (R)-3-(5-(3-cyanophenyl)benzo[d]oxazol-2-yl)-3-fluoropiperidine-1-carbonitrile]
100 to 1000	N#Cc1cc(-c2ccc3oc([C@@]4(F)CCCN(C#N)C4)nc3c2)ncn1 [Example 23, (R)-6-(2-(1-cyano-3-fluoropiperidin-3-yl)benzo[d]oxazol-5-yl)pyrimidine-4-carbonitrile]
100 to 1000	N#Cc1ccnc(-c2ccc3oc([C@@]4(F)CCCN(C#N)C4)nc3c2)n1 [Example 24, (R)-2-(2-(1-cyano-3-fluoropiperidin-3-yl)benzo[d]oxazol-5-yl)pyrimidine-4-carbonitrile]
10 to 100	N#Cc1cc(-c2ccc3oc([C@@]4(F)CCCN(C#N)C4)nc3c2)ccn1 [Example 25, (R)-4-(2-(1-cyano-3-fluoropiperidin-3-yl)benzo[d]oxazol-5-yl)picolinonitrile]
100 to 1000	N#Cc1ccnc(-c2ccc3oc([C@@]4(F)CCCN(C#N)C4)nc3c2)c1 [Example 26, (R)-2-(2-(1-cyano-3-fluoropiperidin-3-yl)benzo[d]oxazol-5-yl)isonicotinonitrile]
100 to 1000	N#Cc1cc(-c2ccc3nc([C@@]4(F)CCCN(C#N)C4)oc3c2)ccn1 [Example 27, (R)-4-(2-(1-cyano-3-fluoropiperidin-3-yl)benzo[d]oxazol-6-yl)picolinonitrile]
100 to 1000	N#Cc1cccc(-c2cnc3nc(C4(F)CCCN(C#N)C4)oc3c2)c1 (centres unmarked) [Example 29, 3-(6-(3-cyanophenyl)oxazolo[4,5-b]pyridin-2-yl)-3-fluoropiperidine-1-carbonitrile]
100 to 1000	N#Cc1cc(-c2cnc3oc([C@@]4(F)CCCN(C#N)C4)nc3c2)ccn1 [Example 30, (R)-4-(2-(1-cyano-3-fluoropiperidin-3-yl)oxazolo[5,4-b]pyridin-6-yl)picolinonitrile]
100 to 1000	N#Cc1cc(-c2ccn3cc([C@@]4(F)CCCN(C#N)C4)nc3c2)ccn1 [Example 31, (R)-4-(2-(1-cyano-3-fluoropiperidin-3-yl)imidazo[1,2-a]pyridin-7-yl)picolinonitrile]
